This note sets out measurements from patent publication US20210379040A1, “COMBINATION TREATMENT OF LIVER DISORDERS” (Terns Pharmaceuticals, Inc., priority 2020, published 2021).

One series relates to human hepatocytes. Nature of the series: In vitro metabolic stability in cryopreserved hepatocytes (human). Type of series: in vitro ADME. The protocol:
(§1) In vitro half-life values were determined and scaled to predict hepatic clearance (CLpred) and hepatic extraction using the well-stirred liver model with no correction for plasma protein as described in Obach et al., The Prediction of Human Pharmacokinetic Parameters from Preclinical and In Vitro Metabolism Data, J. of Pharmacology and Experimental Therapeutics, vol. 283, no. 1, pp. 46-58 (1997).

The test system of the next series is monkey hepatocytes. The series is described as follows: In vitro metabolic stability in cryopreserved hepatocytes (monkey). Particulars: Cynomolgus Monkey. The series is classed as in vitro ADME. The method, then:
as §1

The test system of series [1] is liver gene expression (lipid metabolism and fatty acid transport genes). The series is described as follows: Rat CDHFD+NaNO2 NASH model: liver whole transcriptome RNAseq (DEGs). The series is classed as in vivo, male Wistar rats. Particulars: Compound 2 25 mg/kg, Compound 1 3 mg/kg. The method, then: Animal handling: After arrival, the rats were left for a 2-week acclimation period, during which they were accustomed to the animal facility staff and trained on the procedure of oral gavage. […] Rats were then treated with test compounds for an additional 8 weeks while on CDHFD. […] Final Sacrifice: Half of the animals of each treatment group were terminated on day 84. The other half of the animals in each group were terminated on the following day, day 85. On the day of sacrifice the animals were fasted for 2 hours and received a final treatment with the respective test substance. After the final compound treatment, the animals had no more access to food until sacrifice. At 4 hours after the last administration all animals were sacrificed and livers were sampled for further analysis. Sampling and analysis: Small liver pieces were harvested into RNAlater (Thermo Fisher Scientific Dreieich Germany) and stored at −20° C. prior to RNA sequencing (RNAseq) at MedGenome Inc. RNAseq analysis was performed on liver tissue by Illumina sequencing using standard methodologies. […] Alignment was performed using STAR (v2.7.3a) aligner and reads mapping to ribosomal and mitochondrial genome were removed prior to alignment. Raw read counts were estimated using HTSeq (v0.11.1) and normalized using DESeq2 (v2.22.2). Differentially expressed genes (DEGs) were determined using DESeq2 (R Bioconductor package). […]

The nature of series [2]: Clinical study, First Study (14 days, healthy volunteers). Type of series: in vivo. Particulars: healthy human volunteers, oral daily 5, 75, 200 or 400 mg for 14 days.
A further series has as its system dog hepatocytes. Nature of the series: In vitro metabolic stability in cryopreserved hepatocytes (dog). The series is classed as in vitro ADME. To be noted: Beagle Dog. The method, then: as §1
Series [3] can be described thus: Metabolism and excretion of radiolabeled (14C) compound. The series is classed as in vivo. To be noted: SD rats, bile duct intact or cannulated, orally 5 mg/kg or intravenously 2 mg/kg. The protocol: Blood, bile, feces, and urine samples were collected from each rat for up to 168 hours.
Series [4] in a line: Tissue distribution of radiolabeled (14C) compound, oral 5 mg/kg. Type of series: in vivo. To be noted: Long-Evans rats, oral 5 mg/kg (100 μCi/kg), up to 168 hours. The method, then:
Plasma, liver, small intestine, cecum, kidney, lung, heart and skin tissue samples were collected up to 168 hours, and the amount of radioactive material at various time points was measured.

Series [5] can be described thus: Single-ascending dose clinical trial: plasma PK and safety.
Protocol: SSAO inhibition was determined by measuring relative reductions in plasma H2O2 generation after addition of an exogenous substrate (benzylamine). […] Safety was assessed for 7 (±3) days after dosing.
Plasma PK parameters were determined by non-compartmental analysis. […] Percent change in total amine oxidase activity was determined relative to the corresponding pre-dose (baseline) samples.
The target of a further series is T1, MAO-A (Homo sapiens, UniProt P21397).
T1 sequence (P21397 1-527): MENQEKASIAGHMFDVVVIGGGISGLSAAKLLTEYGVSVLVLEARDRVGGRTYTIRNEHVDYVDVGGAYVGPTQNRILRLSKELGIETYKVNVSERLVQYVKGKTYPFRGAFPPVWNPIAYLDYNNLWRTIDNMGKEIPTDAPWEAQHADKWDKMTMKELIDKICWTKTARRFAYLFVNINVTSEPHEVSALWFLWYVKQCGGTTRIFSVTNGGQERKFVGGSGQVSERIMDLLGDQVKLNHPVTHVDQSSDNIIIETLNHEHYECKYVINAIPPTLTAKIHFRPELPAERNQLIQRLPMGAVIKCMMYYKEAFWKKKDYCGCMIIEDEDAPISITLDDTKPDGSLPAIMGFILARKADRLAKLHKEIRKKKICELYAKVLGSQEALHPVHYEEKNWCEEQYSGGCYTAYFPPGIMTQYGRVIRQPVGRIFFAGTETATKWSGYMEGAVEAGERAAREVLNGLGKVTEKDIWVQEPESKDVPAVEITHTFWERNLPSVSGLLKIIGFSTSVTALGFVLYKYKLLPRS
The series is described as follows: Biochemical activity, MAO-A.

Each structure is given as a SMILES string. Marks after values point to notes of the source that are not given here.

Regarding `Cn1cc(C(=O)O)c2ccc(N3CCC(OCc4c(-c5c(Cl)cccc5Cl)noc4C4CC4)CC3)cc21` [Compound 1], the “Hepatic Extraction” value was 67.0 ± 1.73% in the series with human hepatocytes, 64.4 ± 0.28% in the series on monkey hepatocytes and 71.0 ± 2.49% with dog hepatocytes. The “In vitro Metabolic CLpred” value in the series with human hepatocytes (well-stirred liver model) amounted to 0.83 ± 0.22 L/h/kg; with monkey hepatocytes (well-stirred liver model) it was 1.68 ± 0.01 L/h/kg; in the series with dog hepatocytes (well-stirred liver model), 1.32 ± 0.05 L/h/kg. Further, the “Ppargc1a differential gene expression relative to vehicle control” value in series [1] was 0.25 log2-fold change. In addition, the incidences of pruritus entry in series [2] is listed as “no incidences of pruritus were observed”. Further, the “metabolism and major elimination pathway” value in [3] is given as “metabolized into an acyl glucuronide metabolite prior to biliary excretion”. Moreover, in [4], the “tissues with the most radioactive material” value is “Liver, small intestine, and cecum had the most radioactive material”.
For the compound `COC1CCN(c2ncc(OC/C(=C/F)CN)cn2)CC1` [Compound 2], the “plasma PK exposure increase with dose” value in series [5] (between the 3 and 10 mg dose levels, single oral dose) is “greater than dose proportional”. Moreover, in [5] (doses 1, 3, 6, and 10 mg, single dose), the tolerability result was “well tolerated”. For the same compound, the “adverse events or laboratory abnormalities” value in series [5] (healthy humans, single oral dose 1-10 mg) is listed as “No clinically relevant adverse events or laboratory abnormalities were reported”. This compound also had a half-life in series [5] (male, human, plasma, po, 10 mg) of 60 to 180 min. For the same compound, the “Ppargc1a differential gene expression relative to vehicle control” value in series [1] is on record as 0.51* log2-fold change. Moreover, the IC50 at MAO-A was greater than 50 µM.
